Consider 62 compounds from US20250171459A1, “2-METHYL-4',5'-DIHYDROSPIRO[PIPERIDINE-4,7'-THIENO[2,3-C]PYRAN] DERIVATIVES AS INHIBITORS OF APOL1 AND METHODS OF USING SAME” (Vertex Pharmaceuticals Incorporated, priority 2022, published 2025).

The target in the assay is T1, APOL1 (Homo sapiens, UniProt O14791).
T1 sequence (O14791 1-398 S342G/I384M): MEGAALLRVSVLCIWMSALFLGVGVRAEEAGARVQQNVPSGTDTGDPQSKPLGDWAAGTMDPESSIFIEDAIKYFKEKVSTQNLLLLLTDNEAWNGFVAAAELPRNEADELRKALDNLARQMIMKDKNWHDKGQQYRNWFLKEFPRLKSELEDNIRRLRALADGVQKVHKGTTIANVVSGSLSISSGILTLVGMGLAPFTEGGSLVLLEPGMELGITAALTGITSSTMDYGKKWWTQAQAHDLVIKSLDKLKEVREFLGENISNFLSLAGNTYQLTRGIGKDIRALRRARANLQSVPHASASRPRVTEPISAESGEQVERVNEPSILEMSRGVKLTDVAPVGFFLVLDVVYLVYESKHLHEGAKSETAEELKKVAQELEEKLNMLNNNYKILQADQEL
Nature of the assay: MultiTox-Fluor Multiplex Cytotoxicity Assay in tet-inducible APOL1 T-REx-HEK293 cells (cell rescue, ratio of dead to live cells). Particulars: tet-inducible transgenic APOL1 T-REx-HEK293 cell lines, 50 ng/mL tet, 24 hours; read-out: IP50 (i.e., IC50 for cell proliferation). The class given is cell-based. Summed up: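 T-REx-HEK293 cells with tet-inducible APOL1 were treated with compound (10 μM top, 10-point 3-fold dilution, duplicate) plus 50 ng/mL tetracycline for 24 h at 37° C, in DMEM with 2% tet-free FBS. MultiTox-Fluor protease signals gave a dead/live ratio, normalized to no tet (100% viability) and tet alone (0%).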
With `CCc1cc2c(s1)CCOC21CCN(Cc2cn(CC(O)C(C)(C)O)nn2)C(C)C1` (centres unmarked) [Compound 123], the IC50 was under 100 nM. In the case of `CCc1cc2c(s1)CCOC21CCN(Cc2cn(CC(O)C(C)(C)O)nn2)C(C)C1` (centres unmarked) [Compound 124], the IC50 was under 100 nM. On to `CCc1cc2c(s1)CCOC21CCN(Cc2cn(CC(O)C(C)(C)O)nn2)C(C)C1` (centres unmarked) [Compound 125], for which the IC50 is under 100 nM. In the case of `CCc1cc2c(s1)CCO[C@@]21CCN(Cc2cn(C[C@H]3C[C@@H](O)C3)nn2)[C@@H](C)C1` [Compound 126] it was under 100 nM; in that of `CCc1cc2c(s1)CCO[C@@]21CCN(Cc2cn(C3(CO)CC3)nn2)[C@@H](C)C1` [Compound 127], 500 to 1000 nM. Consider `CCc1cc2c(s1)CCO[C@@]21CCN(Cc2cn(C3CC(CO)N3)nn2)[C@@H](C)C1` (some centres unmarked) [Compound 128], for which the IC50 fell in the range of 100 to 500 nM. Regarding `CCc1cc2c(s1)CCO[C@@]21CCN(Cc2cn(CCOC)nn2)[C@@H](C)C1` [Compound 129], the IC50 lay within 100 to 500 nM. For `CCc1cc2c(s1)CCO[C@@]21CCN(Cc2cn(C(C)COC)nn2)[C@@H](C)C1` (some centres unmarked) [Compound 130], the IC50 was in the range of 100 to 500 nM. In the case of `CCc1cc2c(s1)CCO[C@@]21CCN(Cc2cn(CC3CCOC3)nn2)[C@@H](C)C1` (some centres unmarked) [Compound 131], the IC50 fell in the range of 100 to 500 nM.

Take `CCc1cc2c(s1)CCO[C@@]21CCN(Cc2cn([C@H]3C[C@@](C)(O)C3)nn2)[C@@H](C)C1` [Compound 132]: the IC50 fell in the range of 100 to 500 nM. The same measure for `CCc1cc2c(s1)CCOC21CCN(Cc2cn(CC(O)CC)nn2)C(C)C1` (centres unmarked) [Compound 133]: under 100 nM; for `CCc1cc2c(s1)CCO[C@@]21CCN(Cc2cn(CC(C)(CO)CO)nn2)[C@@H](C)C1` [Compound 134]: under 100 nM; for `CCc1cc2c(s1)CCO[C@@]21CCN(Cc2cn(CC(C)(C)CO)nn2)[C@@H](C)C1` [Compound 135]: 100 to 500 nM. Regarding `CCc1cc2c(s1)CCO[C@@]21CCN(Cc2cn(CC3COCCO3)nn2)[C@@H](C)C1` (some centres unmarked) [Compound 136], the IC50 was under 100 nM. Consider `CCc1cc2c(s1)CCOC21CCN(Cc2cn(CC(COC)OC)nn2)C(C)C1` (centres unmarked) [Compound 137], for which the IC50 was under 100 nM. As to `CCc1cc2c(s1)CCOC21CCN(Cc2cn(CC(O)COC)nn2)C(C)C1` (centres unmarked) [Compound 138], the IC50 is under 100 nM. `CCc1cc2c(s1)CCO[C@@]21CCN(Cc2cn(CC(CO)OC)nn2)[C@@H](C)C1` (some centres unmarked) [Compound 139]: the IC50 was under 100 nM. On to `CCc1cc2c(s1)CCO[C@@]21CCN(Cc2cn(C[C@@H](C)O)nn2)[C@@H](C)C1` [Compound 140], for which the IC50 was under 100 nM. The same measure for `CCc1cc2c(s1)CCO[C@@]21CCN(Cc2cn(C[C@H](C)O)nn2)[C@@H](C)C1` [Compound 141]: 100 to 500 nM. `CCc1cc2c(s1)CCO[C@@]21CCN(Cc2cn(C[C@H]3C[C@H](O)C3)nn2)[C@@H](C)C1` [Compound 142]: the IC50 is 100 to 500 nM. With `CCc1cc2c(s1)CCOC21CCN(Cc2cn(CC(O)CO)nn2)C(C)C1` (centres unmarked) [Compound 143], the IC50 is under 100 nM. In the case of `CCc1cc2c(s1)CCO[C@@]21CCN(Cc2cn([C@H]3CC[C@@H]3O)nn2)[C@@H](C)C1` [Compound 144], the IC50 was 100 to 500 nM. In the case of `CCc1cc2c(s1)CCO[C@@]21CCN(Cc2cn([C@H]3C[C@@H](OC)C3)nn2)[C@@H](C)C1` [Compound 145] it was under 100 nM; in that of `CCc1cc2c(s1)CCO[C@@]21CCN(Cc2cn(CC3(O)COC3)nn2)[C@@H](C)C1` [Compound 146], under 100 nM; in that of `CCc1cc2c(s1)CCO[C@@]21CCN(Cc2cn(C3(CO)COC3)nn2)[C@@H](C)C1` [Compound 147], 500 to 1000 nM. Turning to `CCc1cc2c(s1)CCOC21CCN(Cc2cn(C(C)CC(N)=O)nn2)C(C)C1` (centres unmarked) [Compound 148], the IC50 lay in the range of 100 to 500 nM. Take `CCc1cc2c(s1)CCO[C@@]21CCN(Cc2cn(C(C)(C)C(N)=O)nn2)[C@@H](C)C1` [Compound 149]: the IC50 fell in the range of 500 to 1000 nM. Consider `CCc1cc2c(s1)CCO[C@@]21CCN(Cc2cn(CC3(CO)CC3)nn2)[C@@H](C)C1` [Compound 150], for which the IC50 fell in the range of 100 to 500 nM. The same measure for `CCc1cc2c(s1)CCO[C@@]21CCN(Cc2cn([C@H]3C[C@H](O)C3)nn2)[C@@H](C)C1` [Compound 151]: under 100 nM; for `CCc1cc2c(s1)CCO[C@@]21CCN(Cc2cn(C3CC(O)C3)nn2)[C@@H](C)C1` (some centres unmarked) [Compound 152]: 100 to 500 nM.

Consider `CCc1cc2c(s1)CCO[C@@]21CCN(Cc2cn(CCCO)nn2)[C@@H](C)C1` [Compound 153], for which the IC50 is under 100 nM. As to `CCc1cc2c(s1)CCO[C@@]21CCN(Cc2cn(CCO)nn2)[C@@H](C)C1` [Compound 154], the IC50 was under 100 nM. Consider `CCc1cc2c(s1)CCO[C@@]21CCN(Cc2cn(CC3(S(C)(=O)=O)CCOCC3)nn2)[C@@H](C)C1` [Compound 155], for which the IC50 was under 100 nM. As for `CCc1cc2c(s1)CCO[C@@]21CCN(Cc2cn(CC3(S(C)(=O)=O)CC3)nn2)[C@@H](C)C1` [Compound 156], the IC50 was under 100 nM.

For the compound `CCc1cc2c(s1)CCO[C@@]21CCN(Cc2cn(CC3(S(C)(=O)=O)CCCC3)nn2)[C@@H](C)C1` [Compound 157], the IC50 was under 100 nM. As to `CCc1cc2c(s1)CCO[C@@]21CCN(Cc2cn(CC3CCCCS3(=O)=O)nn2)[C@@H](C)C1` (some centres unmarked) [Compound 158], the IC50 is under 100 nM. As to `CCc1cc2c(s1)CCO[C@@]21CCN(Cc2cn(CCS(=O)(=O)C(C)(C)C)nn2)[C@@H](C)C1` [Compound 159], the IC50 was in the range of 100 to 500 nM. `CCc1cc2c(s1)CCO[C@@]21CCN(Cc2cn(CCS(=O)(=O)C(C)C)nn2)[C@@H](C)C1` [Compound 160]: the IC50 was under 100 nM. As to `CCc1cc2c(s1)CCO[C@@]21CCN(Cc2cn(CC3CCCS3(=O)=O)nn2)[C@@H](C)C1` (some centres unmarked) [Compound 161], the IC50 is under 100 nM. In the case of `CCc1cc2c(s1)CCO[C@@]21CCN(Cc2cn(C3CN(S(C)(=O)=O)C3)nn2)[C@@H](C)C1` [Compound 162], the IC50 is under 100 nM.

In the case of `CCc1cc2c(s1)CCO[C@@]21CCN(Cc2cn(C(C)c3nncn3CCOC)nn2)[C@@H](C)C1` (some centres unmarked) [Compound 163], the IC50 fell in the range of 500 to 1000 nM. Turning to `CCc1cc2c(s1)CCO[C@@]21CCN(Cc2cn(C(C)(C)C(=O)N3CCOCC3)nn2)[C@@H](C)C1` [Compound 164], the IC50 was in the range of 500 to 1000 nM.

Take `CCc1cc2c(s1)CCO[C@@]21CCN(Cc2cn(Cc3nc(C)no3)nn2)[C@@H](C)C1` [Compound 165]: the IC50 was under 100 nM. For the compound `CCc1cc2c(s1)CCO[C@@]21CCN(Cc2cn(C3C[C@@H](CO)NC3=O)nn2)[C@@H](C)C1` (some centres unmarked) [Compound 166], the IC50 was 500 to 1000 nM.

As to `CCc1cc2c(s1)CCO[C@@]21CCN(Cc2cn(Cc3cnn(C)n3)nn2)[C@@H](C)C1` [Compound 167], the IC50 was under 100 nM. For the compound `CCc1cc2c(s1)CCO[C@@]21CCN(Cc2cn(C(C)(C)CS(C)(=O)=O)nn2)[C@@H](C)C1` [Compound 168], the IC50 was 500 to 1000 nM. Regarding `CCc1cc2c(s1)CCO[C@@]21CCN(Cc2cn(CC(O)(CC)CCCO)nn2)[C@@H](C)C1` (some centres unmarked) [Compound 169], the IC50 is under 100 nM.

On to `CCc1cc2c(s1)CCO[C@@]21CCN(Cc2cn(C3(CO)CCOC3)nn2)[C@@H](C)C1` (some centres unmarked) [Compound 170], for which the IC50 lay in the range of 500 to 1000 nM. In the case of `CCc1cc2c(s1)CCO[C@@]21CCN(Cc2cn(CC3CN(C(C)=O)CCO3)nn2)[C@@H](C)C1` (some centres unmarked) [Compound 171] it was 100 to 500 nM; in that of `CCc1cc2c(s1)CCO[C@@]21CCN(Cc2cn(C(CC)C(=O)N3CCOCC3)nn2)[C@@H](C)C1` (some centres unmarked) [Compound 172], 100 to 500 nM; in that of `CCc1cc2c(s1)CCO[C@@]21CCN(Cc2cn(CCN3C(=O)CCC3=O)nn2)[C@@H](C)C1` [Compound 173], 100 to 500 nM. With `CCc1cc2c(s1)CCO[C@@]21CCN(Cc2cn(CC3CN(C)C(=O)CO3)nn2)[C@@H](C)C1` (some centres unmarked) [Compound 174], the IC50 was 100 to 500 nM. As to `CCc1cc2c(s1)CCO[C@@]21CCN(Cc2cn(CCN3CCS(=O)(=O)CC3)nn2)[C@@H](C)C1` [Compound 175], the IC50 was in the range of 500 to 1000 nM. On to `CCc1cc2c(s1)CCO[C@@]21CCN(Cc2cn(Cc3nnc(C)o3)nn2)[C@@H](C)C1` [Compound 176], for which the IC50 was in the range of 100 to 500 nM. Regarding `CCc1cc2c(s1)CCO[C@@]21CCN(Cc2cn(C(C)(CO)CO)nn2)[C@@H](C)C1` [Compound 177], the IC50 was 500 to 1000 nM. Consider `CCc1cc2c(s1)CCO[C@@]21CCN(Cc2cn(CCOCCO)nn2)[C@@H](C)C1` [Compound 178], for which the IC50 is 100 to 500 nM.

As for `CCc1cc2c(s1)CCO[C@@]21CCN(Cc2cn(Cc3cn(C)nn3)nn2)[C@@H](C)C1` [Compound 179], the IC50 was under 100 nM. Take `CCc1cc2c(s1)CCO[C@@]21CCN(Cc2cn(C3CC(=O)N(CCOC)C3)nn2)[C@@H](C)C1` (some centres unmarked) [Compound 180]: the IC50 is under 100 nM. In the case of `CCc1cc2c(s1)CCO[C@@]21CCN(Cc2cn(CC(N)=O)nn2)[C@@H](C)C1` [Compound 181], the IC50 lay within 100 to 500 nM. The same measure for `CCc1cc2c(s1)CCO[C@@]21CCN(Cc2cn(CCN(CCO)CCO)nn2)[C@@H](C)C1` [Compound 182]: 100 to 500 nM. For the compound `CCc1cc2c(s1)CCO[C@@]21CCN(Cc2cn(CCCS(C)(=O)=O)nn2)[C@@H](C)C1` [Compound 183], the IC50 was under 100 nM. `CCc1cc2c(s1)CCO[C@@]21CCN(Cc2cn(Cc3nc(COC)no3)nn2)[C@@H](C)C1` [Compound 184]: the IC50 was under 100 nM.
